The results in this text go back to ChEMBL document CHEMBL4823254, “Tetrahydroquinoline-Capped Histone Deacetylase 6 Inhibitor SW-101 Ameliorates Pathological Phenotypes in a Charcot-Marie-Tooth Type 2A Mouse Model” (J Med Chem, 2021).

For data set [1], the target named is T1, Protein deacetylase HDAC6 (Mus musculus) (UniProt Q9Z2V5).
T1 sequence (whole entry): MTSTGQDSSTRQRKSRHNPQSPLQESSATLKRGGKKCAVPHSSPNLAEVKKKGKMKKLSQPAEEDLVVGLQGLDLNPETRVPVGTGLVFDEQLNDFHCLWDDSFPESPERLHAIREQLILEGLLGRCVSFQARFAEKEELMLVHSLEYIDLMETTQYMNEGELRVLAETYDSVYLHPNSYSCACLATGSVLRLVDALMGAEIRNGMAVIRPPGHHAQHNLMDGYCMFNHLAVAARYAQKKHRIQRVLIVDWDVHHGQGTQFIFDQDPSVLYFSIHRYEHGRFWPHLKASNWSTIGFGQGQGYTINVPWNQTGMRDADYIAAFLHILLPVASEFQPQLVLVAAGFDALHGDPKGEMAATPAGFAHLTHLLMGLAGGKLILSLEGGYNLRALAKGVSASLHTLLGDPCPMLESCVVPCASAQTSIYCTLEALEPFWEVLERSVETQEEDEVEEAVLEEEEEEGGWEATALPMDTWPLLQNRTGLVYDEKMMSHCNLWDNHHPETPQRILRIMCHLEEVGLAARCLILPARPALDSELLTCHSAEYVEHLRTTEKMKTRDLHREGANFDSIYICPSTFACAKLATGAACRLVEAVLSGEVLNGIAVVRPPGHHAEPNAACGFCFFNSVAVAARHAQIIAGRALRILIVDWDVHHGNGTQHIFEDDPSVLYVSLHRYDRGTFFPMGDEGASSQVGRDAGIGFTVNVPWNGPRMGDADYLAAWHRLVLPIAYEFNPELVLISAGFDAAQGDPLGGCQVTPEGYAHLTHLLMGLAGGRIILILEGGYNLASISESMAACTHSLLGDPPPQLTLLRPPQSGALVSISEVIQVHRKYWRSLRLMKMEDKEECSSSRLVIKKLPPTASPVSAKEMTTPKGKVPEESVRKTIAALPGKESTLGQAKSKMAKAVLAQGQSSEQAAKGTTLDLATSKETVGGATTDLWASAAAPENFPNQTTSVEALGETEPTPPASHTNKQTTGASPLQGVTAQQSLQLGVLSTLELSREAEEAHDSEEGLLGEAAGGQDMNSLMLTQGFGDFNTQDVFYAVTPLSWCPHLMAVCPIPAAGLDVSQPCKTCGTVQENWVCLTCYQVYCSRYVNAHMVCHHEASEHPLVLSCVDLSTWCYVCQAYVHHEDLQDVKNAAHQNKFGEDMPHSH
The data set is described as follows: In vivo inhibition of HDAC6 in wild type mouse assessed as increase in alpha-tubulin acetylation in sciatic nerve tissue at 20 mg/kg, ip administered for 12 hrs by immunoblot analysis relative to control. The data set is classed as functional, organism-based. Set-up: scale not given: the % may be the effect or the level left. On the technique in general: Immunoblotting shows a protein as a band on a membrane.

Data set [2] is described as follows: Genotoxicity in Salmonella typhimurium TA98 at 5 to 100 uM in absence of liver S9 fraction by Ames test. The data set is classed as toxicity. The conditions noted are these: salmonella enterica subsp. enterica serovar typhimurium, s9, 100 µM; dose 5-100 µM.
Data set [3] in a line: Half life in C57BL/6J mouse brain at 15 mg/kg, ip. The data set is classed as ADME, organism-based.
The target in another data set is Histone deacetylase 1 (Homo sapiens, UniProt Q13547).
A short description of data set [4]: Half life in mouse liver s9 fraction. The data set is classed as ADME, subcellular.
Data set [5] is described as follows: Half life in CD1 mouse pooled liver microsomes assessed as parent compound remaining measured up to 60 mins in presence of NADPH by LC-MS/MS analysis. The data set is classed as ADME, Microsome. The settings on record: CD1, mouse, pooled liver microsomes.
Data set [6] can be described thus: Genotoxicity in Salmonella typhimurium TA1535 at 5 to 100 uM in absence of liver S9 fraction by Ames test. The data set is classed as toxicity. The settings on record: salmonella enterica subsp. enterica serovar typhimurium, s9, 100 µM; dose 5-100 µM.
Data set [7] can be described thus: Tmax in C57BL/6J mouse plasma at 15 mg/kg, ip. The data set is classed as ADME, organism-based.
The target of data set [8] is T1, Protein deacetylase HDAC6 (Mus musculus). The experiment in a line: In vivo inhibition of HDAC6 in wild type mouse assessed as increase in alpha-tubulin acetylation in sciatic nerve tissue at 10 to 20 mg/kg, ip measured after 48 hrs by immunoblot analysis. The data set is classed as functional, organism-based. The settings on record: dose 10-20 mg/kg.
Data set [9] can be described thus: Half life in C57BL/6J mouse plasma at 15 mg/kg, ip. Format: ADME, organism-based.
The test system of data set [10] is Mus musculus. The experiment in a line: Neuroprotective activity in hMFN2-induced CMT2A transgenic mouse model assessed as increase in motor performance at 20 mg/kg, ip qd by rotarod test. Format: functional, organism-based.
Data set [11] in a line: Cmax in C57BL/6J mouse plasma at 15 mg/kg, ip. The data set is classed as ADME, organism-based. Set-up: route intraperitoneal, dose 15 mg/kg.
The target of data set [12] is T1, Protein deacetylase HDAC6 (Mus musculus). The data set is described as follows: In vivo inhibition of HDAC6 in hMFN2-induced CMT2A transgenic mouse model assessed as increase in acetylated tubulin in distal sciatic nerve tissue at 20 mg/kg, ip qd administered for 22 weeks by Western blot analysis. Format: functional, organism-based.
The target of another data set is Histone deacetylase 9 (Homo sapiens, UniProt Q9UKV0). The experiment in a line: Inhibition of recombinant human HDAC9 using Boc-Lys(TFA)-AMC as substrate preincubated for 10 mins followed by substrate addition and measured after 30 mins by fluorescence-based assay.
Data set [13] can be described thus: Stability in CD1 mouse pooled liver microsomes assessed as parent compound remaining measured at 60 mins in presence of NADPH by LC-MS/MS analysis. The data set is classed as ADME, Microsome. The settings on record: CD1, mouse, pooled liver microsomes, read-out: Stabilty.
For data set [14], the target named is T1, Protein deacetylase HDAC6 (Mus musculus). The experiment in a line: In vivo inhibition of HDAC6 in hMFN2-induced CMT2A transgenic mouse model assessed as increase in acetylated tubulin in distal sciatic nerve tissue at 20 mg/kg, ip qd administered for 22 weeks when treated prior with compound dissolved in PBS/PEG400/Tween80/EtOH (50/35/10/5) wt% as vehicle by Western blot analysis. Format: functional, organism-based.

A short description of data set [15]: Toxicity in mouse assessed as adverse effect at 10 to 20 mg/kg, ip administered for 3 days every 12 hrs. The data set is classed as organism-based. The conditions noted are these: in vivo, 72 h, dose 10-20 mg/kg, time 3 day.
For a further data set, the target named is Histone deacetylase 5 (Homo sapiens, UniProt Q9UQL6). The experiment in a line: Inhibition of recombinant human HDAC5 using Boc-Lys(TFA)-AMC as substrate preincubated for 10 mins followed by substrate addition and measured after 30 mins by fluorescence-based assay.
A further data set addresses hERG (KCNH2) (Homo sapiens, UniProt Q12809). The experiment in a line: Inhibition of human ERG expressed in CHO cells at 10 uM by automated patch clamp method relative to control. The settings on record: CHO cells expressing human ERG. Format: cell-based. In general terms: In patch-clamp work, channel activity is measured electrically.
Data set [16] is described as follows: Half life in human liver s9 fraction. The data set is classed as ADME, subcellular.
Data set [17] relates to Mus musculus. The data set is described as follows: Neuroprotective activity in hMFN2-induced CMT2A transgenic mouse model assessed as increase in paw withdrawal threshold at 20 mg/kg, ip qd administered when treated prior with compound dissolved in PBS/PEG400/Tween80/EtOH (50/35/10/5) wt% as vehicle by von Frey test. The data set is classed as functional, organism-based.

A short description of data set [18]: Half life in human pooled liver microsomes assessed as parent compound remaining measured up to 60 mins in presence of NADPH by LC-MS/MS analysis. Format: ADME, Microsome. The conditions noted are these: pooled liver microsomes. In general terms: Liver microsomes are a subcellular fraction often used to study metabolism.

SMILES strings stand for the structures. The source made the active and inactive calls.

Histone deacetylase 1, sequence (Q13547 whole entry): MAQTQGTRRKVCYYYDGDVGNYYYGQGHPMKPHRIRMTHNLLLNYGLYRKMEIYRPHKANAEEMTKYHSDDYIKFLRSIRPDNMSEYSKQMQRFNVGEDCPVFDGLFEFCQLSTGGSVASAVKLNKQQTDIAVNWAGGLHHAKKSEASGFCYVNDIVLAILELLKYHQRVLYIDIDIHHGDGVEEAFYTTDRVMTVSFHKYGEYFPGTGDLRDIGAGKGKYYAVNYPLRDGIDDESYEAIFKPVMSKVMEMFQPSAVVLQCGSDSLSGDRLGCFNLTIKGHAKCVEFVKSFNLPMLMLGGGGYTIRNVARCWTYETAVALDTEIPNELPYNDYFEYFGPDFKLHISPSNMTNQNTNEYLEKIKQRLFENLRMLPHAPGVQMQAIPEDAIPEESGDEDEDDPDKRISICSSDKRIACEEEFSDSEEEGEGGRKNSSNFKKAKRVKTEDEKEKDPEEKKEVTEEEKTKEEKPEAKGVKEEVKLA
Histone deacetylase 9, sequence (Q9UKV0 whole entry): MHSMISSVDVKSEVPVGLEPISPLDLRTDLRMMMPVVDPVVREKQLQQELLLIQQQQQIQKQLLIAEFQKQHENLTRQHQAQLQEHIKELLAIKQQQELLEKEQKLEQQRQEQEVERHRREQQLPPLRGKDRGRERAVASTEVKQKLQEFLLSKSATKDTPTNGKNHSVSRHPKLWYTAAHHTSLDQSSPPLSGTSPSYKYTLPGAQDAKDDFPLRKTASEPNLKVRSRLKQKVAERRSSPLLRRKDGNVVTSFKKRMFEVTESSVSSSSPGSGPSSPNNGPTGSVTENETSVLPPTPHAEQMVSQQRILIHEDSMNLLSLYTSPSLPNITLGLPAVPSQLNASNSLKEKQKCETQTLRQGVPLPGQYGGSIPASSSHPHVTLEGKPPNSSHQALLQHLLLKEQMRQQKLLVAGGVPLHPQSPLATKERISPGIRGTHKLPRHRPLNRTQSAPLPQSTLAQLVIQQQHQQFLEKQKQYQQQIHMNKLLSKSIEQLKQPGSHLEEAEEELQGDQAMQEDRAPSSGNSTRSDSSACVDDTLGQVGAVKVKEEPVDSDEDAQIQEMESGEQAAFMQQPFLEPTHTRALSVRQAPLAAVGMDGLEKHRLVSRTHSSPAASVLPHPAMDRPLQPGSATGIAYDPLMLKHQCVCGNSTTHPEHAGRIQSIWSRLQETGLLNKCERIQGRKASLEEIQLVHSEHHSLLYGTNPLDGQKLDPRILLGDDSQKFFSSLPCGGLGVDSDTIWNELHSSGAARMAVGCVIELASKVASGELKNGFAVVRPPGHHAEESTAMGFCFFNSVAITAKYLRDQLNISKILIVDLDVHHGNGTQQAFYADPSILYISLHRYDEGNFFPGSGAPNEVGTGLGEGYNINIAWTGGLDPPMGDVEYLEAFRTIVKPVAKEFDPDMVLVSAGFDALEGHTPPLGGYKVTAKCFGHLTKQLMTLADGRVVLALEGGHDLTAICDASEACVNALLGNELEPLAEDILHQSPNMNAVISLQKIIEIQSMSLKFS
hERG (KCNH2), sequence (Q12809 whole entry): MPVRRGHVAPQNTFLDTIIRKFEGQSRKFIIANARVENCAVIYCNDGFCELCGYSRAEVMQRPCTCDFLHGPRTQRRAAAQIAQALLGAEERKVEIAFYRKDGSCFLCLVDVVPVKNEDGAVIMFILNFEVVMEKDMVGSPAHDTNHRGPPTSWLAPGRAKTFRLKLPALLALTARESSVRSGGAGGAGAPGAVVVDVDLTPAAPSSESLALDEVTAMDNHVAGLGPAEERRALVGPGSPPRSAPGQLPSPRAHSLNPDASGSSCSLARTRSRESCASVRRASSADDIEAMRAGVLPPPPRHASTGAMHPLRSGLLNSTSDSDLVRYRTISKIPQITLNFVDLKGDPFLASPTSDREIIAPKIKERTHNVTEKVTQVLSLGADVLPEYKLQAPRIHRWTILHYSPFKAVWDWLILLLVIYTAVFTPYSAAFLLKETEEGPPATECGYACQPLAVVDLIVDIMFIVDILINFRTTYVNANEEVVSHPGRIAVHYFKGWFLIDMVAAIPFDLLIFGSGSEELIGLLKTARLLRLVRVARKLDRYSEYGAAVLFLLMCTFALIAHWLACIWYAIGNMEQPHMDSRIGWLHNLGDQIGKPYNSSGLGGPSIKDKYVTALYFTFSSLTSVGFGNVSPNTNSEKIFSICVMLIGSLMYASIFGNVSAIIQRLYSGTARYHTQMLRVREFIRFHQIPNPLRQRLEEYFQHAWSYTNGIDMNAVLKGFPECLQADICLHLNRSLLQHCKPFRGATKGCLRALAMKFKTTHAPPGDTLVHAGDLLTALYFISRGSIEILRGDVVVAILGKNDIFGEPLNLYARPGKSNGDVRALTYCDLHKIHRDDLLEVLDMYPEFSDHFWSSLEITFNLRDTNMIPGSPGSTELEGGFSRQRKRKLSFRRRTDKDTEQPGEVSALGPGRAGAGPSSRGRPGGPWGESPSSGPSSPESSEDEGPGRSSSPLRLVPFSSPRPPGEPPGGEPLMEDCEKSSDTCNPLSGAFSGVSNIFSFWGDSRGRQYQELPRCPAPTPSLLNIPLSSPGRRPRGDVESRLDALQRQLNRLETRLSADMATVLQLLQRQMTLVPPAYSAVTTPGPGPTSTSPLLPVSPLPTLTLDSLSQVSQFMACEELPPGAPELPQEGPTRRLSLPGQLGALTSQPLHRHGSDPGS
Histone deacetylase 5, sequence (Q9UQL6 whole entry): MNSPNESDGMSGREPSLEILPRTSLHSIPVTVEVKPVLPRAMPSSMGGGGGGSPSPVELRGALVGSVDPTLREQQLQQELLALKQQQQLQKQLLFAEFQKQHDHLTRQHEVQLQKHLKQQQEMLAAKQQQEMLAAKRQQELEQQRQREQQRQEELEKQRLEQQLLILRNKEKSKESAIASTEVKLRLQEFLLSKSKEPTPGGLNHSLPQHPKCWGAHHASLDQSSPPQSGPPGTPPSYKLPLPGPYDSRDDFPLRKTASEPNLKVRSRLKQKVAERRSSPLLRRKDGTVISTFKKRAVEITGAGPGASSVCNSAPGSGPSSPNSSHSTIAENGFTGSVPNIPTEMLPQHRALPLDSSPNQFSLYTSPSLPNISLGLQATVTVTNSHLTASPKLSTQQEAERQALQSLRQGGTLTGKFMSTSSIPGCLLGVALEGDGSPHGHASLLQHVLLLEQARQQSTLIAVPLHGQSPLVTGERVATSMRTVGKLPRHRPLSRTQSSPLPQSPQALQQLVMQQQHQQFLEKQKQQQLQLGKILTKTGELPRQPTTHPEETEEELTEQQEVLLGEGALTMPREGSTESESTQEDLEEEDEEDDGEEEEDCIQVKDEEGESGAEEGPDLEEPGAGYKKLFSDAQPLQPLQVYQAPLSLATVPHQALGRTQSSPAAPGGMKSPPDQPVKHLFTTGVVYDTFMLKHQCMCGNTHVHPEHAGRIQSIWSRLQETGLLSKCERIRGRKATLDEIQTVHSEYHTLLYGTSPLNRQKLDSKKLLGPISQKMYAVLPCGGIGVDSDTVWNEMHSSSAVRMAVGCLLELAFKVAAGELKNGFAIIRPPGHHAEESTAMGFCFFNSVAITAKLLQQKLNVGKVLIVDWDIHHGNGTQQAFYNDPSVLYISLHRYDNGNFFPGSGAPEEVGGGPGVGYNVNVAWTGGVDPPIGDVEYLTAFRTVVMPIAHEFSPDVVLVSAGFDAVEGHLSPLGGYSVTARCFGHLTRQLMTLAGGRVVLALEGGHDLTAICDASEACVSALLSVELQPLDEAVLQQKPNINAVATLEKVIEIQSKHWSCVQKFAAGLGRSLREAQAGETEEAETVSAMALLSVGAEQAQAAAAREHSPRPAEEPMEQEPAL
Description for Histone deacetylase 1: Inhibition of Nanoluc-fused HDAC1 (unknown origin) expressed in HEK293 cells incubated for 2 hrs by NANOBRET assay

`NC(=O)c1ccc2c(c1)CCCN2Cc1ccc(C(=O)NO)cc1`: the Activity in data set [1] is 175%; in data set [2], “Non-Toxic”; in [6], “Non-Toxic”; in data set [15] it was “Non-Toxic”. For the same compound, the half-life (usually how long it takes for the measured level to halve) in [3] was 2.9 h; in data set [4], 3.55 h; in data set [5] it was 1.48 h; in data set [9], 0.44 h; in data set [16], over 16.7 h; in [18], 2.89 h. Besides, the IC50 (in general, the concentration needed to halve the response being measured) against Histone deacetylase 1 worked out at 4830 nM; at Histone deacetylase 9, 650 nM; at Histone deacetylase 5, 276 nM. The Tmax – broadly, the time at which the peak concentration occurs – in data set [7] worked out at 4.8 min. The inhibition entry in data set [8] and in data set [14] was “inactive” throughout. Also, the outcome in the data set with Mus musculus [10] and in the data set with Mus musculus [17] was Active. Further, the Cmax – broadly, the peak of the concentration-time curve – in data set [11] is 3580 ng/mL. Further, the inhibition (usually the drop in the measured response relative to a control, in per cent) in data set [12] is “Active”. In data set [13], the remaining at 1 h stood at 56%. This compound registered an inhibition at 10 µM against hERG (KCNH2) of 30%.
